Earlier results on 46 compounds are cited in PMC5074076, “Novel minimal physiologically-based model for the prediction of passive tubular reabsorption and renal excretion clearance” (European Journal of Pharmaceutical Sciences, 2016).

For the data set the following is noted: healthy subjects; plasma and urine data from same subjects; normalised for subject weight and body surface area where necessary; ref Table S2.1; cited from earlier work.
Turning to `N[C@@H](CC(=O)N1CCn2c(nnc2C(F)(F)F)C1)Cc1cc(F)c(F)cc1F` [Sitagliptin], the “Overall weighted mean CLR” value was 371.2 mL/min.

As to `CC1COc2c(N3CCN(C)CC3)c(F)cc3c(=O)c(C(=O)O)cn1c23` (stereo not shown) [Ofloxacin], the “Overall weighted mean CLR” value was 184.4 mL/min.

Take `CC12CC3CC(C)(C1)CC(N)(C3)C2` [Memantine]: the “Overall weighted mean CLR” value is 117.1 mL/min.

For `CCN(CC)CCNC(=O)c1ccc(NC(C)=O)cc1` [Acecainide], the “Overall weighted mean CLR” value was 226.7 mL/min.

`CC(CC(c1ccccc1)c1ccccc1)NC(C)(C)C` (stereo not shown) [Terodiline]: the “Overall weighted mean CLR” value is 11.1 mL/min.

Take `CO[C@@]1(NC(=O)C(C(=O)O)c2ccc(O)cc2)C(=O)N2C(C(=O)O)=C(CSc3nnnn3C)CO[C@@H]21` (stereo partly shown) [Moxalactam]: the “Overall weighted mean CLR” value was 69.5 mL/min.

As to `CSc1ccc(C(=O)c2[nH]c(=O)[nH]c2C)cc1` [Enoximone], the “Overall weighted mean CLR” value is 3.4 mL/min.

For the compound `CN1CCN(C(=O)OC2c3nccnc3C(=O)N2c2ccc(Cl)cn2)CC1` (stereo not shown) [Zopiclone], the “Overall weighted mean CLR” value was 13.0 mL/min.

As for `CC[C@H](C)C(=O)O[C@H]1C[C@H](O)C=C2C=C[C@H](C)[C@H](CC[C@@H](O)C[C@@H](O)CC(=O)O)[C@H]21` [Pravastatin], the “Overall weighted mean CLR” value was 414.6 mL/min.

On to `Nc1nc2c(ncn2CCC(CO)CO)c(=O)[nH]1` [Penciclovir], for which the “Overall weighted mean CLR” value was 439.6 mL/min.

Turning to `COc1cc(Cc2cnc(N)nc2N)cc(OC)c1OC` [Trimethoprim], the “Overall weighted mean CLR” value was 78.2 mL/min.

With `CC(CN1c2ccccc2Sc2ccccc21)N(C)C` (stereo not shown) [Promethazine], the “Overall weighted mean CLR” value is 5.9 mL/min.

In the case of `C[C@H]1COc2c(N3CCN(C)CC3)c(F)cc3c(=O)c(C(=O)O)cn1c23` [Levofloxacin], the “Overall weighted mean CLR” value is 116.9 mL/min.

Consider `CCCC(=O)Nc1ccc(OCC(O)CNC(C)C)c(C(C)=O)c1` (stereo not shown) [Acebutolol], for which the “Overall weighted mean CLR” value was 222.8 mL/min.

As to `CC(=O)N[C@H]1[C@H]([C@H](O)[C@H](O)CO)OC(C(=O)O)=C[C@@H]1N=C(N)N` [Zanamivir], the “Overall weighted mean CLR” value was 89.1 mL/min.

Turning to `CC(C)(C)NC[C@H](O)COc1nsnc1N1CCOCC1` [Timolol], the “Overall weighted mean CLR” value was 125.1 mL/min.

For `CO/N=C(\C(=O)N[C@@H]1C(=O)N2C(C(=O)O)=C(CSc3nc(C)c(CC(=O)O)s3)CS[C@H]12)c1csc(N)n1` [Cefodizime], the “Overall weighted mean CLR” value was 29.1 mL/min.

For the compound `Cn1nnnc1SCC1=C(C(=O)O)N2C(=O)[C@@H](NC(=O)[C@H](O)c3ccccc3)[C@H]2SC1` [Cefamandole], the “Overall weighted mean CLR” value is 162.3 mL/min.

For `Nc1ncnc2c1ncn2CCOCP(=O)(O)O` [Adefovir], the “Overall weighted mean CLR” value is 200.4 mL/min.

Turning to `CC1CN(c2cc3c(cc2F)c(=O)c(C(=O)O)cn3-c2ccc(F)cc2F)CCN1` (stereo not shown) [Temafloxacin], the “Overall weighted mean CLR” value was 122.5 mL/min.

On to `CO[C@@]1(NC(=O)C2SC(=C(C(N)=O)C(=O)O)S2)C(=O)N2C(C(=O)O)=C(CSc3nnnn3C)CS[C@@H]21` (stereo partly shown) [Cefotetan], for which the “Overall weighted mean CLR” value is 23.9 mL/min.

Consider `CN(C)CCc1c[nH]c2ccc(CS(=O)(=O)N3CCCC3)cc12` [Almotriptan], for which the “Overall weighted mean CLR” value is 399.5 mL/min.

With `Nc1cccc2c1CN(C1CCC(=O)NC1=O)C2=O` (stereo not shown) [Lenalidomide], the “Overall weighted mean CLR” value was 190.4 mL/min.

On to `CO[C@H]1/C=C/O[C@@]2(C)Oc3c(C)c(O)c4c(O)c(c(/C=N/N5CCN(C)CC5)c(O)c4c3C2=O)NC(=O)/C(C)=C\C=C\[C@H](C)[C@H](O)[C@@H](C)[C@@H](O)[C@@H](C)[C@H](OC(C)=O)[C@@H]1C` [Rifampin], for which the “Overall weighted mean CLR” value was 18.7 mL/min.

With `C=CC1=C(C(=O)O)N2C(=O)[C@@H](NC(=O)/C(=N\OCC(=O)O)c3csc(N)n3)[C@H]2SC1` [Cefixime], the “Overall weighted mean CLR” value is 32.5 mL/min.

Turning to `CO[C@@]1(NC(=O)C(C(=O)O)c2ccsc2)C(=O)N2[C@@H](C(=O)O)C(C)(C)S[C@@H]21` (stereo partly shown) [Temocillin], the “Overall weighted mean CLR” value is 39.8 mL/min.

In the case of `Cc1cn([C@@H]2C[C@@H](O)[C@H](CO)O2)c(=O)[nH]c1=O` [Telbivudine], the “Overall weighted mean CLR” value was 116.7 mL/min.

For the compound `CCC(CC)O[C@@H]1C=C(C(=O)O)C[C@H](N)[C@H]1NC(C)=O` [Oseltamivir carboxylate], the “Overall weighted mean CLR” value was 231.7 mL/min.

Turning to `CCN(CC)CCNC(=O)c1ccc(NS(C)(=O)=O)cc1` [Sematilide], the “Overall weighted mean CLR” value was 262.0 mL/min.

As for `CCN(CC)CCCC(C)Nc1ccnc2cc(Cl)ccc12` (stereo not shown) [Chloroquine], the “Overall weighted mean CLR” value is 167.2 mL/min.

`CC(C)NCC(O)COc1cccc2[nH]ccc12` (stereo not shown) [Pindolol]: the “Overall weighted mean CLR” value was 210.9 mL/min.

Take `CC(C)(O/N=C(\C(=O)N[C@@H]1C(=O)N2C(C(=O)[O-])=C(C[n+]3ccccc3)CS[C@H]12)c1csc(N)n1)C(=O)O` [Ceftazidime]: the “Overall weighted mean CLR” value is 98.0 mL/min.

In the case of `CN1CCN(c2c(F)cc3c(=O)c(C(=O)O)cn(CCF)c3c2F)CC1` [Fleroxacin], the “Overall weighted mean CLR” value was 67.5 mL/min.

For the compound `CC1(C)S[C@@H]2[C@H](NC(=O)C(C(=O)O)c3ccccc3)C(=O)N2[C@H]1C(=O)O` (stereo partly shown) [Carbenicillin], the “Overall weighted mean CLR” value is 127.0 mL/min.

Consider `CN1CCN(c2c(F)cc3c(=O)c(C(=O)O)cn4c3c2SCC4)CC1` [Rufloxacin], for which the “Overall weighted mean CLR” value is 16.8 mL/min.

`O=S(=O)(O)CCS` [Mesna]: the “Overall weighted mean CLR” value is 265.8 mL/min.

As to `CCn1cc(C(=O)O)c(=O)c2cc(F)c(N3CCNC(C)C3)c(F)c21` (stereo not shown) [Lomefloxacin], the “Overall weighted mean CLR” value is 155.8 mL/min.

In the case of `Cc1cn([C@H]2C[C@H](N=[N+]=[N-])[C@@H](CO)O2)c(=O)[nH]c1=O` [Zidovudine], the “Overall weighted mean CLR” value was 258.1 mL/min.

As for `NCc1ccccc1CC(=O)N[C@@H]1C(=O)N2C(C(=O)O)=C(CSc3nnnn3CC(=O)O)CS[C@H]12` [Ceforanide], the “Overall weighted mean CLR” value is 46.8 mL/min.

On to `CC(C)NCC(O)COc1ccc(COCCOC(C)C)cc1` (stereo not shown) [Bisoprolol], for which the “Overall weighted mean CLR” value was 157.0 mL/min.

For `O=C(O)C1=C(CSc2nnnn2CS(=O)(=O)O)CS[C@@H]2[C@H](NC(=O)[C@H](O)c3ccccc3)C(=O)N12` [Cefonicid], the “Overall weighted mean CLR” value was 18.3 mL/min.

As for `C[C@H]1O[C@@H](O[C@H]2[C@@H](O)C[C@H](O[C@H]3[C@@H](O)C[C@H](O[C@H]4CC[C@@]5(C)[C@H](CC[C@@H]6[C@@H]5C[C@@H](O)[C@]5(C)[C@@H](C7=CC(=O)OC7)CC[C@]65O)C4)O[C@@H]3C)O[C@@H]2C)C[C@H](O)[C@@H]1O` [Digoxin], the “Overall weighted mean CLR” value was 151.1 mL/min.

Take `CNC(C)Cc1ccc2c(c1)OCO2` (stereo not shown) [MDMA]: the “Overall weighted mean CLR” value is 215.0 mL/min.

For the compound `CCN1CCC[C@H]1CNC(=O)c1c(OC)ccc(Br)c1OC` [Remoxipride], the “Overall weighted mean CLR” value is 35.6 mL/min.

Regarding `C[C@@H](CN1CC(=O)NC(=O)C1)N1CC(=O)NC(=O)C1` [Dexrazoxane], the “Overall weighted mean CLR” value is 133.3 mL/min.

With `CC1(C)S[C@@H]2[C@H](NC(=O)[C@H](N)c3ccc(O)cc3)C(=O)N2[C@H]1C(=O)O` [Amoxicillin], the “Overall weighted mean CLR” value was 167.0 mL/min.
